Drawing on patent US20070088019A1, “Macroheterocyclic compounds as kinase inhibitors” (priority 2005, published 2007), this text covers IC50 and retinal neovascularization for 4 molecules.

In assay [1] the target is T1, recombinant rabbit GSK-3β protein (Oryctolagus cuniculus, UniProt G1T8E2).
T1 construct: purchased New England Biolabs
Briefly: Glycogen Synthase Kinase-3 assay. The class given is biochemical. As to conditions: PPI-2 substrate, 33P-ATP, 90 minutes at 30° C. The method, then:
Glycogen Synthase Kinase-3 Assay
Compounds were tested for the ability to inhibit recombinant rabbit GSK-3β protein using the following protocol. The test compound was added to a reaction mixture containing Protein phosphatase inhibitor-2 (PPI-2) (Calbiochem) (45 ng), rabbit GSK-3β protein (New England Biolabs) (0.75 units) and ^33P-ATP (1 μCi) in 50 mM Tris-HCl (pH 8.0), 10 mM MgCl2, 0.1% BSA, 1 mM DTT and 100 μM Sodium Vanadate. The mixture was reacted for 90 minutes at 30° C. to allow phosphorylation of the PPI-2 protein and then the protein in the reaction was precipitated using 10% TCA. The precipitated protein was collected on filter plates (MultiScreen-DV/Millipore), which were subsequently washed. Finally, the radioactivity was quantified using a TopCount Scintillation Counter (Packard). […] Staurosporine or Valproate, known inhibitors of GSK-3β, were used as a positive control for screening.

The target of another assay is PKC Beta I (Homo sapiens, UniProt P05771). The assay is described as follows: Protein Kinase C histone-based assay, PKC beta I. As to conditions: histone substrate, 30 μM ATP, 10 min at 30° C. The class given is biochemical.
Sequence of PKC Beta I (P05771 whole entry, canonical isoform): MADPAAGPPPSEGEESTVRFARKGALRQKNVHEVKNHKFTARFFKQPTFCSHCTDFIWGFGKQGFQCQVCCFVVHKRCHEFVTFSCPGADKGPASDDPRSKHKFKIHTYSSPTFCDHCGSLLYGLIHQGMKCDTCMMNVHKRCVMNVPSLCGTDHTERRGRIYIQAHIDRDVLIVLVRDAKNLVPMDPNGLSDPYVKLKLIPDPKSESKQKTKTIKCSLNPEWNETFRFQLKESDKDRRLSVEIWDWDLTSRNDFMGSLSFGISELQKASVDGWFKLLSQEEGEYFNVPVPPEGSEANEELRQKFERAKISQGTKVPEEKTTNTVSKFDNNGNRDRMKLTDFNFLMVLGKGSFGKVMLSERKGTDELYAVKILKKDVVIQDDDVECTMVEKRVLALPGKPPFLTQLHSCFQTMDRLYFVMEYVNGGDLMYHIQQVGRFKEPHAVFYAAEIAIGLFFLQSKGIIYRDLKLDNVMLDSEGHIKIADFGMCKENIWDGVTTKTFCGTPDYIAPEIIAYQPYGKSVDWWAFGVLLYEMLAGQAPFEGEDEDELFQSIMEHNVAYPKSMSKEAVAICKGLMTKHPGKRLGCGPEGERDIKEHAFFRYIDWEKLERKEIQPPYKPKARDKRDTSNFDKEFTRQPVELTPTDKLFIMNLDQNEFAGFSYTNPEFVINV
For another assay, the target named is PKC isoform β-II (Homo sapiens, UniProt P05771). The assay is described as follows: Protein Kinase C histone-based assay, PKC beta II. It is filed as biochemical. The settings on record: histone substrate, 30 μM ATP, 10 min at 30° C. The method, then: (§1) Protein Kinase C Histone-Based Assay
Sequence of PKC isoform β-II (P05771 1-673 isoform P05771-2): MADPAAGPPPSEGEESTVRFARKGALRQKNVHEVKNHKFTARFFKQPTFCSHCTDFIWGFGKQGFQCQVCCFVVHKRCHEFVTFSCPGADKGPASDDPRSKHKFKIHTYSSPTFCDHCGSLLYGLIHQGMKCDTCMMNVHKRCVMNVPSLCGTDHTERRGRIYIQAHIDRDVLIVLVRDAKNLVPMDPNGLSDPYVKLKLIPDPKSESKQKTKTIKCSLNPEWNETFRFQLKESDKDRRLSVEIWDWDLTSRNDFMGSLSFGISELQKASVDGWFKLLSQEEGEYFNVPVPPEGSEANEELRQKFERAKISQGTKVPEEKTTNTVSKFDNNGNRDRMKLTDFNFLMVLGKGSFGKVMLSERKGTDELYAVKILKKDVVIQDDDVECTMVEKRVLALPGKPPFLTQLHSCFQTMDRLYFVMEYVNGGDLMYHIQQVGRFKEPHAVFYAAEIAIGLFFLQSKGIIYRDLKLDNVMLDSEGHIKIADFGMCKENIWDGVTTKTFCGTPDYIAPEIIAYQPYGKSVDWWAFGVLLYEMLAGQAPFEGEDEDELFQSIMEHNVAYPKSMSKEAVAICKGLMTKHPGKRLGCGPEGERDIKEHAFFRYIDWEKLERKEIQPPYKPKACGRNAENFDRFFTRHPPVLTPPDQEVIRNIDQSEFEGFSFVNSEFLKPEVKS
(§2) Compounds were evaluated for PKC selectivity using histone III as the substrate. The PKC isoforms α, β-II or γ were added to a reaction mixture containing 20 mM HEPES, (pH 7.4), […] CaCl2, 10 mM MgCl2, 1 mM EGTA. 100 μg/mL phosphatidylserine, 20 μg/mL diacylglycerol, 30 μM ATP, 1 μCi (^33P)ATP, and 200 μg/mL […]. The reaction was incubated for 10 min at 30° C. Reactions were terminated by TCA precipitation and spotting on Whatman P81 filters. Filters were washed in 75 mM phosphoric acid and the radioactivity quantified by liquid scintillation counting.

In another assay the target is PKC isoform α (Homo sapiens, UniProt P17252). Briefly: Protein Kinase C histone-based assay, PKC alpha. The class given is biochemical. The settings on record: histone substrate, 30 μM ATP, 10 min at 30° C. As to the method:
as §1, §2

A further assay has as its target PKC isoform γ (Homo sapiens, UniProt P05129). The assay is described as follows: Protein Kinase C histone-based assay, PKC gamma. The class given is biochemical. As to conditions: histone substrate, 30 μM ATP, 10 min at 30° C. The method, then:
as §1, §2

The subject of assay [2] is retinal neovascularization. The assay is described as follows: Murine retinopathy in-vivo model (oxygen-induced retinopathy). Further details: species or system mouse. The settings on record: 60 mg/kg. From the text: Murine Retinopathy In-Vivo Model
The methods used in this model are known to those skilled in the art and are referenced in the scientific literature, such as Smith, L. E., Wesolowski, E., McLellan, A., Kostyk, S. K., D'Amato, R., Sullivan, R., and D'Amore, P. A. “Oxygen-induced retinopathy in the mouse”. Invest. Ophthalmol. Vis. Sci., 1994, January; 35(1): 101-11.

A word on the IC50: it is the midpoint of a concentration-inhibition curve.

T1 sequence (G1T8E2 1-432): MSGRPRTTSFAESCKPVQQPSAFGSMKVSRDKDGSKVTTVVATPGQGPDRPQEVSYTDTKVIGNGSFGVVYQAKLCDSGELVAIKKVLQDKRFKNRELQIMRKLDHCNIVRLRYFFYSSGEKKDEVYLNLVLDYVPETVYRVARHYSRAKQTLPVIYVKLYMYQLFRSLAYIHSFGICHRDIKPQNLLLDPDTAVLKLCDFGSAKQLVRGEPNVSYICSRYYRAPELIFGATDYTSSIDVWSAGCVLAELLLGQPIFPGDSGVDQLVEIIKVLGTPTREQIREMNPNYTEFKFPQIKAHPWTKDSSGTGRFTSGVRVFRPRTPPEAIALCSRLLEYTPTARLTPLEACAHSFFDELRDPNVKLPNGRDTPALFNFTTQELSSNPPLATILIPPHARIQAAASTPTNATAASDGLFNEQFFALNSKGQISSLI

`O=C1NC(=O)C2=C1c1cn(c3ccccc13)CCNCCSCCNCCn1cc2c2ccccc21` [Compound 1, 10,11,12,13,14,16,17,18,19,20-decahydro-15-thio-2,9,12,18,21-pentaaza-1H-diindolo[1,2,3-m,n:3′,2′,1′-r,s]cyclononadec-14,16,18-trien[16,17-c]-pyrrole-2,5-dione]: the IC50 in assay [1] was 0.005 µM; against PKC Beta I it was 0.009 µM; against PKC isoform β-II, 0.006 µM; at PKC isoform α it was 0.16 µM; on PKC isoform γ, 0.36 µM.

Regarding `CN1CCOCCN(C)CCn2cc(c3ccccc32)C2=C(C(=O)NC2=O)c2cn(c3ccccc23)CC1` [Compound 2, 12,18-dimethyl-10,11,12,13,14,16,17,18,19,20-decahydro-15-oxa-2,9,12,18,21-pentaaza-1H-diindolo[1,2,3-m,n:3′,2′,1′-r,s]cyclononadec-14,16,18-trien[16,17-c]-pyrrole-2,5-dione], the IC50 in assay [1] worked out at 0.006 µM; against PKC Beta I, 0.027 µM; at PKC isoform β-II it was 0.041 µM; on PKC isoform α it was 0.49 µM; against PKC isoform γ it was 1.56 µM.

As for `O=C1NC(=O)C2=C1c1cn(c3ccccc13)CCNCCOCCNCCn1cc2c2ccccc21` [Compound 3, 10,11,12,13,14,16,17,18,19,20-decahydro-15-oxa-2,9,12,18,21-pentaaza-1H-diindolo[1,2,3-m,n:3′,2′,1′-r,s]cyclononadec-14,16,18-trien[16,17-c]-pyrrole-2,5-dione], the IC50 in assay [1] was found to be 0.007 µM; against PKC Beta I, 0.009 µM; at PKC isoform β-II it was 0.013 µM; on PKC isoform α, 0.33 µM; against PKC isoform γ, 5.84 µM. The retinal neovascularization entry in assay [2] was “inhibited retinal neovascularization”.

In the case of `CN1CCOCCNCCn2cc(c3ccccc32)C2=C(C(=O)NC2=O)c2cn(c3ccccc23)CC1` [Compound 4, 18-methyl-10,11,12,13,14,16,17,18,19,20-decahydro-15-oxa-2,9,12,18,21-pentaaza-1H-diindolo[1,2,3-m,n:3′,2′,1′-r,s]cyclononadec-14,16,18-trien[16,17-c]-pyrrole-2,5-dione], the IC50 at PKC Beta I came to 0.006 µM; at PKC isoform β-II it was 0.008 µM; on PKC isoform α it was 0.28 µM; against PKC isoform γ, 1.2 µM.
